Test results published in patent EP0254663B1, “2-(2-Phosphonoxyphenyl-Carbonyloxy)benzoic acid, salts thereof, a process for the preparation thereof” (SUEROS, ANTIBIOTICOS Y LABORATORIO DE VACUNOTERAPIA, …, priority 1986, dated 1988).

Columns and labels:
adjuvant arthritis = adjuvant arthritis inhibition; format: in vivo; conditions: 100-200 mg/kg/day, for 14 days
Protocol: At doses ranging from 100-200 mg/kg/day, for 14 days, PSS inhibits adjuvant arthritis by 40 - 50 %. At equal dose levels, inhibition by ASA is 0 - 39 %.

[1] = tested on: carrageenin induced rat paw oedema; experiment: carrageenin induced rat paw oedema; format: in vivo; conditions: 200 mg/kg
Protocol: PSS has a 49 % anti-inflammatory activity at 200 mg/kg on carrageenin induced rat paw oedema.

[2] = tested on: serum reducing activity (SH group levels); experiment: correction of depressed serum reducing activity (SH group levels) in adjuvant arthritis; format: in vivo; conditions: 200 mg/kg/day
Protocol: In adjuvant arthritis, there is observed a depression of the serum reducing activity (SH group levels). PSS affords a 100 % correction at 200 mg/kg/day, while at equal dose levels ASA only affords a 60 % correction.

[3] = tested on: death by respiratory distress caused by i.v. injection of arachidonic acid; experiment: protection from death by respiratory distress caused by i.v. arachidonic acid; format: in vivo
Protocol: ASA provides 72 % protection at 50 mg/kg.

[4] = tested on: pain induced in mouse by i.p. injection of acetic acid; experiment: pain induced in mouse by i.p. injection of acetic acid; format: in vivo; conditions: i.p. acetic acid 30 minutes after oral administration
Protocol: The inhibitory dose30 levels (ID-30) for pain induced in mouse by i.p. injection of acetic acid 30 minutes after oral administration were: 46.3, 98.15, 40 and 129.6 for PSS, PS (phosphosal), ASA and SS, respectively.

[5] = tested on: motor activity inhibition produced by inflammatory pain; experiment: correction of motor activity inhibition produced by inflammatory pain; format: in vivo; conditions: 200 mg/kg
Protocol: PSS and ASA afford a 90 % correction of the motor activity inhibition produced by inflammatory pain at 200 mg/kg.

acute oral toxicity = conditions: in vivo, read-out: Acute toxicity (LDso)
ulcerogenic activity = conditions: in vivo
Excerpt: The ulcerogenic activity of PSS (ulcerogenic index - 3.16) is lower than that of ASA (UI = 10.54) or indo- methacin (Ul - 25.28).

[6] = gastrointestinal hemorrhages, blood in faeces (radioisotope method); format: in vivo; conditions: 400 mg/kg, faeces excreted during the following 4 days
beer yeast induced fever = beer yeast induced fever in the rat; format: in vivo
[7] = salicylic acid levels after continued administration for 14 days; format: in vivo; conditions: continued administration at equal dose levels for 14 days

SMILES	inhibition of adjuvant arthritis (adjuvant arthritis)	anti-inflammatory activity [1]	correction of depression of the serum reducing activity (SH group levels) [2]	protection from death by respiratory distress ([3]; 50 mg/kg)	inhibitory dose30 levels (ID-30) [4]	correction of the motor activity inhibition produced by inflammatory pain [5]	LD50 (acute oral toxicity)	ulcerogenic index (ulcerogenic activity)	protection from death by respiratory distress ([3]; 100 mg/kg)	Gastrointestinal hemorrhages, measured as µl blood in faeces [6]	antipyretic activity (beer yeast induced fever)	salicylic acid levels [7]
CC(=O)Oc1ccccc1C(=O)O [ASA, acetyl salycilic acid]	0 - 39%	61%	60%	72%	40	90%	1100 mg/kg	10.54	–	–	–	–
O=C(O)c1ccccc1OP(=O)(O)O [PS, salicylic acid phosphonate]	–	–	–	–	98.15	65%	–	–	–	–	–	–
O=C(O)c1ccccc1OC(=O)c1ccccc1OP(=O)(O)O [PSS, 2-(2-phosphonoxyphenylcarbonyloxy) benzoic acid]	40 - 50%	49%	100%	–	46.3	90%	1590 mg/kg	3.16	does not protect	significantly lower than those caused by ASA	superior to ASA and inferior to paracetamol	much higher salicylic acid levels for PSS than for ASA
O=C(Oc1ccccc1C(=O)O)c1ccccc1O [SS, 2-(2-hydroxyphenylcarbonyloxy) benzoic acid]	–	24%	–	–	129.6	32.6%	–	–	–	–	–	–
COc1ccc2c(c1)c(CC(=O)O)c(C)n2C(=O)c1ccc(Cl)cc1 [indo- methacin]	–	–	–	–	–	–	–	25.28	–	–	–	–
